Entries after “also recorded” stand apart in the source; their conditions may differ.
Columns and labels:
HDMEC = assay: Actin remodelling and cell spreading of HDMEC plated on FN (phalloidin staining); assay type: cell-based, human; conditions: Imatinib-treated
Protocol: (§1) (A-C) ABL1 kinase activity is essential for PXN phosphorylation. […] In (A), pPXN Y118 (green) is shown together with phalloidin (red) and DAPI (blue) on the left hand side and as single channel in grey scale on the right hand side; scale bar 20 μm. pPXN pixel intensity was quantified in (B) and expressed as fold change in knockdown cells at the indicated time points relative to control cells at 0 min; mean±SEM of four independent experiments.
(§2) Human microvascular dermal EC (HDMEC; Promocell, UK) and human umbilical vein EC (HUVEC; Promocell) were cultured in standard conditions and transfected with Lipofectamine RNAIMAX (Life Technologies). Primary mouse lung EC (MLEC) were isolated from mice between one and two months of age by magnetic-activated cell sorting (MACS) with PECAM antibodies (BD Biosciences, UK). […] In some experiments, cells were stimulated with VEGF165 50 ng/ml for the indicated times.
(§3) Immunofluorescence staining of HDMEC and p6 mouse retinas was analysed with a L5M710 laser scanning confocal microscope.

PXN Y118 phosphorylation = PXN Y118 phosphorylation in HDMEC plated on FN (immunofluorescence, immunoblotting); assay type: cell-based, human; conditions: 10 μM Imatinib 30 min before and during plating on FN, versus vehicle
Protocol: as §1, §2, §3

retinal vasculature = assay: Physiological retinal angiogenesis in the perinatal mouse (IB4/FN labelled P6 retinal flatmounts); assay type: in vivo
From the text: FIG. 7 ABL1 is essential for vessel spouting and branching in the retina. […] Vascular extension from the retinal centre to the vascular front is indicated with red arrows. […] Asterisks indicate statistical significance: **P<0.01.
(C,D) Reduced astrocyte, but not vascular FN deposition in Imatinib-treated retinas. […] Note reduced FN staining of astrocyte processes ahead of the vascular front (A), whilst the vasculature was prominently stained for FN.
Examples of abnormally long and wide sprouts without lateral protrusions or connections are indicated with arrows. (G) Quantification of filopodial bursts per vascular front length as an indicator of tip cell number, and quantification of branchpoints behind the vascular front; vehicle, n=7; P4/5, n=3; P2-5, n=4; ***P<0.001 versus control; ^♯P<0.05 for P4/5 versus P2-5treatment.
All animal procedures were performed in accordance with institutional and UK Home Office guidelines. We used C57/616 wild type mice (Charles River Laboratories), littermate wild type and heterozygous Nrp/-null mutants and mice carrying two floxed conditional null Nrp1 alleles (Nrp1^fl/fl) combined with Pdgfb-iCre-ERT2-Egfp with codon-improved Cre on a C57/616 background. For tamoxifen-induction of CRE-mediated recombination, 0.2 mg of tamoxifen (SIGMA) dissolved in peanut oil to 2 mg/ml was administered via intraperitoneal injection into pups at the indicated times. […] OIR was induced as previously described. Briefly, nursing dams and their pups were maintained at 75±3% O2 in an oxygen supply chamber from P7 to P12; dams were rested in room air for 1 h each day. Dams and pups were returned to room air on P12 and the pups culled on P17 to isolate retinas for immunolabelling; the size of the avascular and neovascular areas was determined with Photoshop CS4 (Adobe Inc.) in images acquired with a SZX16 stereofluorescent microscope (Olympus) equipped with a digital camera (Hamamatsu Photonics Ltd).
as §3

[1] = system: pathological angiogenesis in the retina; conditions: OIR, P17 retina, daily Imatinib after return to normoxia (P13-16), versus vehicle
[2] = system: BCR-ABL-expressing Ba/F3 and bone marrow cells; conditions: murine xenograft models of leukaemia; cited from earlier work
[3] = P6 retina, Imatinib P2 to P5, versus vehicle
[4] = P6 retina, Imatinib on P4/5 or P2-5, versus vehicle
[5] = P6 retina, Imatinib-treated mice

| SMILES | cell spreading (HDMEC) | stress fibres / cortical actin (phalloidin) (HDMEC) | PXN Y118 phosphorylation (pixel intensities in immunostains and immunoblots) (PXN Y118 phosphorylation) | FN pixel intensity in IB4-positive (vascular) areas (retinal vasculature; [3]) | astrocyte FN deposition ahead of the vascular front (retinal vasculature; [3]) | vascular extension across the retina (retinal vasculature; [3]) | branchpoints behind the vascular front (retinal vasculature; [4]) | tip cells (filopodial bursts at the vascular front) (retinal vasculature; [4]) | filopodia morphology at the vascular front (retinal vasculature; [5]) | interaction of tip cells with microglia (retinal vasculature; [5]) | sprout morphology at the vascular front (retinal vasculature; [5]) | vascular network density (retinal vasculature; P6 retinal flatmounts, Imatinib versus vehicle) | formation of neovascular tufts (NV area) [1] | suppression of proliferation of BCR-ABL-expressing cells in vivo [2] |
| --- | --- | --- | --- | --- | --- | --- | --- | --- | --- | --- | --- | --- | --- | --- |
| Cc1ccc(NC(=O)c2ccc(CN3CCN(C)CC3)cc2)cc1Nc1nccc(-c2cccnc2)n1 [Imatinib] | reduced | few stress fibres, but abundant cortical actin | significantly reduced | no difference; also recorded: not significantly (ns) changed | significantly reduced | small, but significant reduction; also recorded: Reduced | significant and lmatinib dose-dependent reduction; also recorded: Dose-dependent decrease | significantly fewer | thin, wavy and misoriented | not prevented | longer and wider, with fewer lateral protrusions connecting to neighbouring sprouts | reduced | effectively inhibited; also recorded: reduced |  |
| O=C(NCCO)c1cccc(-c2cc(Nc3ccc(OC(F)(F)F)cc3)ncn2)c1 [GNF-5, N-(2-Hydroxyethyl)-3-(6-(4(trifluoromethoxy)phenylamino)pyrimidin-4-yl)benzamide] |  |  |  |  |  |  |  |  |  |  |  |  |  | exhibits in vivo efficacy in suppressing the proliferation |

— patent publication US20170027936A1, “ABL1 INHIBITOR FOR TREATING AND PREVENTING OCULAR NEOVASCULARISATION” (UCL BUSINESS PLC, priority 2014, published 2017)
